This note sets out measurements from EP3322687B1, “2-BENZYL-INDANONE COMPOUNDS AS ANTICANCER AGENT AND A PROCESS FOR PREPARATION THEREOF” (Council of Scientific and Industrial Research, priority 2015, dated 2017).

One data set has as its system A549 (Lung). The experiment in a line: Sulforhodamine B cytotoxicity assay. Conditions: Homo sapiens, A549; for IC50: SRB, 48 hours incubation, read-out: Human cancer cell lines IC50 A549 (Lung). It counts as cell-based. The procedure: (§1) The benzyl compounds were evaluated by Sulforhodamine B Assay as per reported method [Skehan etal., J. Natl. Cancer Inst.1990, 82, 1107]. The human cancer cell lines procured from National Cancer Institute, Frederick, U. S. A. were used in present study. Cells were grown in tissue culture flasks in complete growth medium (RPMI-1640 medium with 2 mM glutamine, pH 7.4 supplemented with 10% fetal bovine serum, 100 µg/ml streptomycin and 100 units/ml penicillin) in a carbon dioxide incubator (37°C, 5% CO2, 90% RH). The cells at subconfluent stage were harvested from the flask by treatment with trypsin (0.05% in PBS (pH 7.4) containing 0.02% EDTA). Cells with viability of more than 98%, as determined by trypan blue exclusion, were used for determination of cytotoxicity. The cell suspension required concentration of cells was prepared in complete growth medium. Stock solution of 2x10^-2 M of compounds were prepared in DMSO and further dilution was carried out complete growth medium containing 50µg/ml of gentamycin to obtained working test solution of required concentration. In vitro cytotoxicity against various human cancer cell lines was determined using 96-well cell culture plates. The 100µl of cell suspension was added to each well of the 96-well cell culture plates. The cells were allowed to grow in CO2 incubator (37°C, 5% CO2, 90% RH) for 24 hours. The test materials in complete growth medium (100 µl) were added after 24 hours incubation to the wells containing cell suspension. The plates were further incubated for 48 hours (37°C in an atmosphere of 5% CO2 and 90% relative humidity) in a carbon dioxide incubator after addition of test material and then the cell growth was stopped by gently layering trichloroacetic acid (50% TCA, 50 µl) on top of the medium in all the wells. The plates were incubated at 4°C for one hour to fix the cells attached to the bottom of the wells. The liquid of all the wells was gently pipetted out and discarded. The plates were washed five times with distilled water to remove TCA, growth medium low molecular weight metabolites, serum proteins etc. and air - dried. Cell growth was measured by staining with sulforhodamine B dye. The adsorbed dye was dissolved in Tris-HCl Buffer (100 µl/well, 0.01M, pH 10.4) and plates were gently stirred for 10 minutes on a mechanical stirrer. The optical density (OD) was recorded on ELISA reader at 540nm. Paclitaxel (Taxol), and 5-Fluorouracil were used as positive controls (Standard drugs).

For a further data set, the system named is HCT-116 (Colon). The experiment in a line: Sulforhodamine B cytotoxicity assay. It is filed as cell-based. As to conditions: Homo sapiens, HCT-116; for IC50: SRB, 48 hours incubation, read-out: Human cancer cell lines IC50 HCT-116 (Colon). How it is done: as §1
A general note: The SRB assay estimates cell density from bound dye.

A further data set concerns MCF-7 (Breast cancer). The experiment in a line: Sulforhodamine B cytotoxicity assay. It counts as cell-based. As to conditions: Homo sapiens, MCF7; for IC50: SRB, 48 hours incubation, read-out: Human cancer cell lines IC50 MCF-7 (Breast cancer). The procedure: as §1
For another data set, the system named is T-47D (Breast cancer). The experiment in a line: Sulforhodamine B cytotoxicity assay. Conditions: Homo sapiens, T47D; for IC50: SRB, 48 hours incubation, read-out: Human cancer cell lines IC50 T-47D (Breast cancer). It is filed as cell-based. The procedure: as §1
The test system of another data set is THP-1 (Leukemia). The experiment in a line: Sulforhodamine B cytotoxicity assay. It counts as cell-based. Conditions: Homo sapiens, THP-1; for IC50: SRB, 48 hours incubation, read-out: Human cancer cell lines IC50 THP-1 (Leukemia). How it is done:
as §1

Another data set deals with Hela (Cervix). The experiment in a line: Sulforhodamine B cytotoxicity assay. It is filed as cell-based. As to conditions: Homo sapiens, Concentration 20 µM. The procedure:
as §1

Data set [1] deals with Ehrlich Ascites Carcinoma (EAC). It counts as in vivo, Swiss mice. Conditions: for % Tumor cell growth: 20 mg/kg i/p day 1-9, Day 12, control = 100; for Mortality: 20 mg/kg i/p day 1-9, Day 12, dead/total animals. The procedure:
Ehrlich ascites carcinoma (EAC) cells were collected from the peritoneal cavity of the Swiss mice harbouring 8-10 days old ascitic tumor. 1x10^7 EAC cells were injected intraperitoneally in Swiss mice selected for the experiment on day 0. The next day, animals were randomized and divided into different groups. The treatment groups contained 7 animals each and control group contained 10 animals. The treatment group was treated with 20 mg/kg of Compound 2 intra-peritoneally from day 1-9. One more of the treatment group received 5-fluorouracil (20 mg/kg, i.p) and it served as positive control. The tumor bearing control group was similarly administered normal saline (0.2 ml, i.p.). On day 12, animals were sacrificed and ascitic fluid was collected from peritoneal cavity of each mouse for the evaluation of tumor growth. Percent tumor growth inhibition was calculated based on the total number of tumor cells present in the peritoneal cavity as on day 12 of the experiment using the following formula. Percent tumor growth inhibition = (Av.no.of cells in control group−Av.no.of cells in treated group)/(Av.no.of cells in control group) × 100 [formula]

The next data set has as its system Ehrlich Tumor (solid). It counts as in vivo, Swiss mice. The procedure: Ehrlich ascites carcinoma (EAC) cells were collected from the peritoneal cavity of the Swiss mice harbouring 8-10 days old ascitic tumor. 1x10^7 EAC cells were injected intramuscularly in right thigh of Swiss male mice selected for the experiment on day 0. The next day, animals were randomized and divided into different groups. Two treatment groups contained 7 animals each and one control group contained 10 animals. The first treatment group was given compound 2 (20 mg/kg i/p) from day 1-9. The second treatment group was treated with 5-fluorouracil (22 mg/kg, i.p) from day 1-9 and it served as positive control. The control group was similarly administered normal saline (0.2 ml, i.p.) from day 1-9. On day 9 & 13, tumor bearing thigh of each animal was shaved and longest and shortest diameters of the tumor were measured with the help of vernier caliper. Tumor weight of each animal was calculated using the following formula. Tumor weight (mg) = (Length(mm) × ([width(mm)])^2)/(2) [formula]
The percent tumor growth inhibition was calculated on day 13 by comparing the average values of treated groups with that of control group. Tumor growth in saline treated control animals was taken to be 100%. Table 6. In-vivo anticancer activity of 2 against Ehrlich ascites carcinoma (solid)

The subject of another data set is tubulin protein. It is filed as biochemical. Conditions: read-out: Tubulin polymerisation inhibition IC50. The procedure:
The tubulin polymerization experiment was performed using 'assay kit'(Cytoskeleton USA) following manufacturer's protocol based on the procedure described by of Shelanski et al, (1973) and Lee et al. (1977). Briefly, tubulin protein (3mg/mL) in tubulin polymerization buffer (80 mM PIPES, pH 6.9, 2 mM MgCl2, 0.5 mM EGTA, 1 mM GTP and 15% glycerol) was placed in prewarmed 96-well microtiter plates at 37° C in the presence of test compounds with variable concentrations. All samples were mixed well and polymerization was monitored kinetically at 340 nm every min for 1h using a Spectramax plate reader. The IC50 value was determined from dose-dependent analysis and is defined as the concentration that inhibits the rate of polymerization by 50%. Podophyllotoxin was used as standard tubulin polymerisation inhibitor as positive control.

Structures are written as SMILES. Several values for one entry are separate records, joined by “and”; a condition that tells them apart may be missing. Identical values can stand only once. Like-named read-outs stand apart in the source and are kept apart here.

For orientation: inhibition means how much of the control response was suppressed. With `CC(=O)O[C@H]1C(=O)[C@@]2(C)[C@H]([C@H](OC(=O)c3ccccc3)[C@]3(O)C[C@H](OC(=O)[C@H](O)[C@@H](NC(=O)c4ccccc4)c4ccccc4)C(C)=C1C3(C)C)[C@]1(OC(C)=O)CO[C@@H]1C[C@@H]2O` [Paclitaxel, reference compound], the inhibition at 1 µM in the data set with A549 (Lung) (Concentration 1 µM) came to 88%; with HCT-116 (Colon) (Concentration 1 µM), 45%; with MCF-7 (Breast cancer) (Concentration 1 µM), 77%; with T-47D (Breast cancer) (Concentration 1 µM) it was 78%; with THP-1 (Leukemia) (Concentration 1 µM), 60%.
`O=c1[nH]cc(F)c(=O)[nH]1` [5-Fluorouracil]: the inhibition at 20 µM with A549 (Lung) (Concentration 20 µM) turned out to be 54%; with HCT-116 (Colon) (Concentration 20 µM), 88%; with Hela (Cervix) it was 70%; with MCF-7 (Breast cancer) (Concentration 20 µM) it was 50%; in the data set with T-47D (Breast cancer) (Concentration 20 µM), 60%; with THP-1 (Leukemia) (Concentration 20 µM), 90%. The “%Tumor Growth Inhibition” value in data set [1] (20 mg/kg i/p day 1-9, Day 12) is recorded as 95.4%; in the data set with Ehrlich Tumor (solid) (22 mg /Kg i/p day 1-9, day 13), 59.07%. In addition, the “Av, Volume of ascitic fluid” value in data set [1] (20 mg/kg i/p day 1-9, Day 12) was found to be 0.7 mL. In addition, the “Av. No. of tumor cells” value in data set [1] (20 mg/kg i/p day 1-9, Day 12) is 6.33 x 10^7. In addition, the “Av. Weight of ascitic fluid” value in data set [1] (20 mg/kg i/p day 1-9, Day 12) was determined as 0.46 g. Besides, the “% Tumor cell growth” value in data set [1] is reported as 4.6%. In addition, the Mortality was 0/7 in data set [1] and 0/7 with Ehrlich Tumor (solid) (22 mg /Kg i/p day 1-9, dead/total animals). For the same compound, the “Day 13 Av. Tumor weights” value with Ehrlich Tumor (solid) (22 mg /Kg i/p day 1-9, Day 13) is 842.85 ± 129.92 mg.
The term IC50 denotes the concentration at which inhibition is half-maximal. In the case of `COc1cc(C2c3c(cc(OC)c(OC)c3OC)C(=O)C2Cc2ccc(F)cc2)cc(OC)c1OC` (centres unmarked) [Compound 4, 2-(4"-fluorobenzyl)-3-(3',4',5'-trimethoxyphenyl)-4,5,6-trimethoxy-indan-1-one], the IC50 worked out at 24 µM in the data set with A549 (Lung); 22 µM in the data set on HCT-116 (Colon); 45 µM in the data set on MCF-7 (Breast cancer); 36 µM in the data set with T-47D (Breast cancer); 55 µM with THP-1 (Leukemia).
Consider `COc1ccc(CC2C(=O)c3cc(OC)c(OC)c(OC)c3C2c2cc(OC)c(OC)c(OC)c2)c(OC)c1` (centres unmarked) [Compound 5, 2-(2",4"-dimethoxybenzyl)-3-(3',4',5'-trimethoxyphenyl)-4,5,6-trimethoxy-indan-1-one], for which the IC50 with A549 (Lung) worked out at 1 µM; with HCT-116 (Colon) it was 4 µM; in the data set on MCF-7 (Breast cancer) it was 12 µM; with T-47D (Breast cancer), 12 µM; with THP-1 (Leukemia), 1 µM.
`COc1cc(C2C(=Cc3ccc4c(c3)OCO4)C(=O)c3cc(OC)c(OC)c(OC)c32)cc(OC)c1OC` (centres unmarked) [Compound 12, 2-benzo[1,3]dioxo-5-ylmethylene-4,5,6-trimethoxy-3-(3,4,5-trimethoxyphenyl)-indan-1-one]: the IC50 in the data set with A549 (Lung) came out at 11 µM; in the data set on HCT-116 (Colon), 0.1 µM; in the data set on MCF-7 (Breast cancer), 0.01 µM; with THP-1 (Leukemia) it was 4.9 µM; in the data set on tubulin protein (tubulin 3mg/mL, 37° C, 340 nm, 1h), 0.63 µM. Moreover, the “%Tumor Growth Inhibition” value in [1] (20 mg/kg i/p day 1-9, Day 12) was 45.5% and 45.48%; in the data set with Ehrlich Tumor (solid) (20 mg/kg i/p day 1-9, day 13), 35.9% and 35.91%. Moreover, the “Av, Volume of ascitic fluid” value in data set [1] (20 mg/kg i/p day 1-9, Day 12) was 6.11 mL. For the same compound, the “Av. Weight of ascitic fluid” value in data set [1] (20 mg/kg i/p day 1-9, Day 12) is on record as 5.88 g. The “% Tumor cell growth” value in [1] was 54.52%. The Mortality is recorded as 0/7 in [1] and 0/7 in the data set on Ehrlich Tumor (solid) (20 mg/kg i/p day 1-9, dead/total animals). In [1] (20 mg/kg i/p day 1-9, EAC-bearing female Swiss mice, Day 1), the “Body weight Day 1” value worked out at 21.42 g. Also, the “Body weight Day 5” value in data set [1] (20 mg/kg i/p day 1-9, EAC-bearing female Swiss mice, Day 5) was 22.85 g. Besides, the “Body weight Day 9” value in data set [1] (20 mg/kg i/p day 1-9, EAC-bearing female Swiss mice, Day 9) came out at 22.42 g. Moreover, the “Body weight Day 12” value in [1] (20 mg/kg i/p day 1-9, EAC-bearing female Swiss mice, Day 12) is listed as 23.16 g. Also, the “Day 13 Av. Tumor weights” value in the data set on Ehrlich Tumor (solid) (20 mg/kg i/p day 1-9, Day 13) worked out at 1319.64 ± 56.46 mg. The “Day 13 Av. Body weights” value in the data set on Ehrlich Tumor (solid) (20 mg/kg i/p day 1-9, male Swiss mice, Day 13) was 23.71 g. Moreover, in the data set on Ehrlich Tumor (solid) (20 mg/kg i/p day 1-9, male Swiss mice, day 1), the “Av. Body weights (g) of animals on days 1” value was determined as 21.42 g.
Regarding `COc1cc([C@@H]2c3cc4c(cc3[C@H](O)[C@H]3COC(=O)[C@H]23)OCO4)cc(OC)c1OC` [Podophyllotoxin], the IC50 in the data set with tubulin protein amounted to […].
